Laboratory results as given in patent publication US20070185072A1, “Nitrogeneous polycyclic derivatives useful as chelators of metal ions and their applications” (priority 2003, published 2007).

Test system: double transgenic mice over-expressing human APP (V717I) and human PS1 (A242E)
Test: Amyloid plaque loading (thioflavin S staining of brain sections) in double transgenic mice model of Alzheimer's disease
Assay type: in vivo
Details: vs control
Protocol: Mice over-expressing human APP with the London mutation (V717I) and human PS1 bearing the A242E mutation (APP and PS1 stand for amyloid protein precursor and preseniline 1, respectively) were used.
Three molecules were evaluated on these double transgenic mice (6-month old): 3-Propyl-Clip-Phen (molecule B in the histogram below), Cyclo-bi-Phen (molecule G) and Clioquinol (molecule W) (C stands for control, only DMSO diluted in water).
The molecules were initially diluted in DMSO in the presence of 2.6 equivalents of HCl and then in water and the animals were treated by i.p. injection with the two Phen derivatives at 5 mg/kg or at 10 mg/kg for Clioquinol, three times per week (monday, Wednesday and friday) during 9 consecutive weeks. 9 animals were treated for each drugs (control also included 9 animals).
This method is used to quantify the “old” plaques.

[1] = 5 mg/kg i.p. three times per week for 9 weeks

SMILES: c1cnc2c(c1)ccc1cc(OCCCOc3cnc4c(ccc5cccnc54)c3)cnc12 [3-Propyl-Clip-Phen]
- plaque loading increase [1]: 16%

SMILES: Oc1c(I)cc(Cl)c2cccnc12 [Clioquinol, 5-chloro-7-iodo-8-hydroxyquinoline]
- plaque loading reduction (10 mg/kg i.p. three times per week for 9 weeks): 28%

SMILES: c1nc2c3ccc4cc(cnc42)OCCCOc2cnc4c(ccc5cc(cnc54)OCCCOc1c3)c2 [Cyclo-bi-Phen]
- plaque loading reduction [1]: 38%
